Experimental data reported in publication PMC11413854, “Reversible Control of Native GluN2B-Containing NMDA Receptors with Visible Light” (ACS Chemical Neuroscience, 2024).
“And” between values parts separate entries of the source, which are not always exact repeats. Equal values may be shown once.

Assay: Photostationary state (cis/trans) composition in solution by HPLC, UV-vis or 1H NMR
Assay type: physicochemical
Conditions: for % of trans in solution: Fig. 5J; for % of cis in solution: Figure 5E
Description: To characterize the photochemical properties of OptoNAM-3, we focused on the three key properties allowing the use of azobenzenes in biological systems: (i) wavelengths for trans-to-cis and cis-to-trans conversions; (ii) compound thermalstability, i.e., half-life of the cis isomer in the dark; and (iii) fatigability, i.e., the number of illumination cycles that the molecule can undergo without degradation. To this aim, we acquired UV–visible absorption spectra of OptoNAM-3 diluted in Xenopus oocyte recording solution (Ringer pH 7.3; see Methods) either in the dark (absence of illumination) or after illumination by light wavelengths ranging from 350 to 580 nm (Figures 2B and S1M). In the dark (black curve in Figure 2B), the spectrum was characteristic of a trans isomer.[32] Application of UV light at a wavelength close to the main absorption peak of the trans form (365 or 350 nm) gave a completely different spectrum (violet curves in Figure 2B), characteristic of azobenzenes in their cis configuration.[32] HPLC analysis of OptoNAM-3 in solution identified photostationary states (PSS) containing 100% trans in the dark, 82% cis and 18% residual trans after illumination at 365 nm (365 nm PSS, violet curve in Figure 2C), and 91% cis and 9% residual trans after illumination at 350 nm (350 nm PSS, lavender curve in Figure 2C). […] Irradiation of OptoNAM-3 365 nm PSS with wavelengths from 435 to 550 nm gave equivalent cis-to-trans conversions with 435 and 550 nm yielding slightly stronger conversions (∼70% trans after illumination at 435 and 550 nm calculated from UV–visible spectra at λtrans = 329 nm, Figures 2B and S1N; 550 nm PSS of 69% trans and 31% cis measured by HPLC, Figure 2C, green trace). 550 nm was chosen as the optimal wavelength since green light is less harmful for cells than lights of shorter wavelengths. We then tested the thermal stability of the cis form in the dark (in the absence of illumination). […] This very high stability is interesting because it avoids the prolonged use of light to maintain OptoNAM-3 in the desired configuration. OptoNAM-3 could finally endure many illumination cycles without degradation (Figure 2E).
UV–vis absorbance spectra were measured from in 1 cm long quartz cuvettes on a NanoPhotometer NP80 spectrometer (Implen, Germany). We used solutions of 10, 50, or 100 μM OptoNAMs diluted in Ringer at pH 7.3 (for TEVC extracellular recording solution, see below) from the 50 mM stock solution in DMSO. Photostationary states of OptoNAMs in Ringer for different illumination wavelengths were obtained by continuous illumination with multiwavelength LEDs (pE-2 and pE-4000, CoolLED, UK [power ∼75 mW]) or photochemical reactor RPR-100 Rayonet US (power ∼2 mW) for 350 nm, until no further change in the absorption spectra could be observed. For all irradiation wavelengths tested, 10 min illumination was sufficient to reach the steady state.
The cis–trans compositions of OptoNAM-3 in the dark and after illumination by 365, 350, and 550 nm were determined by HPLC using the relative integrated areas of the cis and trans peaks at the isosbestic point at 280 nm, […], considering that the sum of integrated area for two peaks is 100%. We checked that ratios measured at the isosbestic point at 390 nm were similar. Analytical HPLC was performed on an Agilent 1200 series equipped with a quaternary pump using a Nucleodur C18 HTech column from Macherey-Nagel Inc. (particle size 3 μm, 150 × 4.6 mm column). The compounds were eluted with a flow of 1 mL/min using a gradient of acetonitrile (0–100% over 15 min) in water, with both solvents containing 0.1% TFA. Detection was performed at 220, 280, and 390 nm.
The dark and 365 nm PSS were furthermore characterized by ^1H NMR spectroscopy with the OptoNAMs diluted in DMSO-d6 and the relative abundance of trans and cis isomers quantified using ^1H NMR spectra. […]

[1] = physiological buffer, UV-visible, measured at λtrans
[2] = HPLC, physiological aqueous buffer
[3] = in solution, UV-visible spectra
[4] = in solution, calculated from UV-visible spectra at 329 nm

Nc1ccnc(/N=N/c2ccccc2)c1 [OptoNAM-1, (E)-2-(phenyldiazenyl)pyridin-4-amine]
trans after 440 nm irradiation of the 365 nm PSS [1]: ~ 75%

Cc1cc(N)nc(/N=N/c2ccccc2)c1 [OptoNAM-2, (E)-4-methyl-6-(phenyldiazenyl)pyridin-2-amine]
trans after 490 nm irradiation of the 365 nm PSS [1]: ~ 52%

c1ccc(/N=N/c2ccc(CCNc3ccncc3)cc2)cc1 [OptoNAM-3, (E)-N-(4-(Phenyldiazenyl)phenethyl)pyridin-4-amine]
365 nm PSS, cis, in DMSO (DMSO, 1H NMR): 90%
% of trans in solution (365 nm): 18.030%
% of trans in solution (385 nm): 53.274%
% of trans in solution (435 nm): 71.738%
% of trans in solution (460 nm): 68.781%
% of trans in solution (490 nm): 68.847%
% of trans in solution (525 nm): 62.601%
% of trans in solution (550 nm): 70.739%
% of trans in solution (580 nm): 68.208%
% of cis in solution (365 nm): 82.000%
% of cis in solution (385 nm): 48.439%
% of cis in solution (435 nm): 30.261%
% of cis in solution (460 nm): 30.902%
% of cis in solution (490 nm): 32.185%
% of cis in solution (525 nm): 29.192%
% of cis in solution (550 nm): 27.267%
% of cis in solution (580 nm): 25.128%
550 nm PSS, cis (HPLC): 31%
550 nm PSS, trans (HPLC): 69%
PSS in the dark, trans (HPLC, aqueous solution): 100%
350 nm PSS, cis [2]: 91%
350 nm PSS, residual trans [2]: 9%
365 nm PSS, residual trans [2]: 18%
365 nm PSS, cis (HPLC, physiological aqueous buffer (free OptoNAM-3)): 82%
cis after 460 nm illumination of the dark PSS [3]: ~31%
cis after 550 and 580 nm illumination of the dark PSS [3]: ~30%
trans after 460 nm illumination of the 365 nm PSS [3]: 69%
trans after 435 nm illumination of the 365 nm PSS [4]: ~70% and 72%
trans after 550 nm illumination of the 365 nm PSS [4]: ~70%

CS(=O)(=O)Nc1ccc2nc(Cc3ccc(/N=N/c4ccccc4)cc3)[nH]c2c1 [OptoNAM-4, (E)-N-(2-(4-(phenyldiazenyl)benzyl)-1H-benzo[d]imidazol-6-yl)methanesulfonamide]
trans after 440 nm irradiation of the 365 nm PSS [1]: 100%
